Measured values taken from patent publication US7897602B2, “Indolinone compounds as kinase inhibitors” (Development Center for Biotechnology, priority 2009, dated 2011).

Experiments:
Type in all cases: biochemical
[1] = target: T1, Aurora A kinase (Homo sapiens, UniProt O14965); assay: Aurora A kinase assay ([γ-33P]ATP, CHOCKtide substrate); settings: for inhibition at 1 µM: 1.0 μM test compound
T1 construct: purchased Upstate
T1 sequence (O14965 1-403): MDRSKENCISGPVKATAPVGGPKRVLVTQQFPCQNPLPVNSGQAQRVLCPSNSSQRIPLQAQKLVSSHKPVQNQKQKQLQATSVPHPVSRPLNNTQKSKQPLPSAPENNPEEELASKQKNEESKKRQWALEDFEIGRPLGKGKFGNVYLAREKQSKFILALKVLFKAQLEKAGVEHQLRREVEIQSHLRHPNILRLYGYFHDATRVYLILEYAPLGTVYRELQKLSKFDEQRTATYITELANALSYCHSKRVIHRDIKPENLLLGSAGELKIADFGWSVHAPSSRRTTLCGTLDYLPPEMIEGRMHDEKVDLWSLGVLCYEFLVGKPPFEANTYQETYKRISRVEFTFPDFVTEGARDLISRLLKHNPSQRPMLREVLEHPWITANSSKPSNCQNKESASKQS
Method in brief: (§1)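 Recombinant Aurora A (1 ng) or Aurora B (2.5 ng) incubated with test compound, CHOCKtide (1 μg) and [γ-33P]ATP/ATP at 10 μM (Aurora A) or 40 μM (Aurora B), 30 min at 33 °C. Stopped with phosphoric acid; filter-bound 33P counted; IC50 = half-maximal inhibition.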

[2] = target: T2, Aurora B kinase (Homo sapiens, UniProt Q96GD4); assay: Aurora B kinase assay ([γ-33P]ATP, CHOCKtide substrate); settings: for inhibition at 1 µM: 1.0 μM test compound
T2 construct: purchased Cell signaling
Method in brief: as §1

[3] = target: T3, Flt3 kinase (Homo sapiens, UniProt P36888); assay: Flt3 kinase assay (33P incorporation into Poly(Glu-Tyr)); settings: 100 nM test compound; read-out: Inhibition at 100 nM (%) Flt-3
T3 construct: recombinant N-terminal 6×His-tagged Flt3 kinase domain construct expressed from baculovirus; 6xHis (N); made in house
T3 sequence (P36888 610-943 limits assumed): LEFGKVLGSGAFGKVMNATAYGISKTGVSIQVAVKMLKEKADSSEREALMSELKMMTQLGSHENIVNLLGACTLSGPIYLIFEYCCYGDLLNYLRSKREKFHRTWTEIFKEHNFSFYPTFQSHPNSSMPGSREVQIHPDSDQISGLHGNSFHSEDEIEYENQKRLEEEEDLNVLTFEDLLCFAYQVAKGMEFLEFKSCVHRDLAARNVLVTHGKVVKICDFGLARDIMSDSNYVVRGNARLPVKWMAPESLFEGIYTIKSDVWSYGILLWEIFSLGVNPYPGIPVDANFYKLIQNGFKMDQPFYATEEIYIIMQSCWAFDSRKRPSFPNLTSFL
Method in brief: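 Baculovirus-expressed His-tagged Flt3 kinase domain (5 ng) with Poly(Glu-Tyr) 4:1 substrate, 100 μM ATP plus [33P]-γ-ATP, in MOPS pH 7.0 buffer, 30 min at 30 °C. Compound tested at a single 100 nM concentration; filter-bound radioactivity counted and percent inhibition calculated relative to DMSO control.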

T2 sequence (Q96GD4 whole entry): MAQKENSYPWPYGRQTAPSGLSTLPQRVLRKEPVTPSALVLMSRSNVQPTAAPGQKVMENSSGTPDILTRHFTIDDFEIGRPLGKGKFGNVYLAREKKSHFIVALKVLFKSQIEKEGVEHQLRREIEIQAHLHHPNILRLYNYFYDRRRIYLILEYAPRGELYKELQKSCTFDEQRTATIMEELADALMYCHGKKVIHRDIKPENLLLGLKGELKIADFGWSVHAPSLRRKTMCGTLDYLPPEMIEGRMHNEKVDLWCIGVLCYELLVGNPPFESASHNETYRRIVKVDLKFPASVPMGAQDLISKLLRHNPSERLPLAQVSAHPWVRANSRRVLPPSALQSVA

Row | Structure (SMILES) | inhibition at 1 µM [1] | IC50 [2] | inhibition at 1 µM [2] | inhibition at 0.1 µM [3] | IC50 [1]
1 | CN(C)S(=O)(=O)c1ccc2c(c1)/C(=C/c1[nH]c3c(c1CCC(=O)O)C(=O)CCC3)C(=O)N2 [DCB-70121, (Z)-5-(N,N-dimethylsulfamoyl)-3-((3-carboxyethyl-4-oxo-4,5,6,7-tetrahydro-1H-indol-2-yl)methylene)indolin-2-one] | 97.9% | 1720 nM | 46.5% | 14.6% | 
2 | CCOC(=O)CCc1c(/C=C2\C(=O)Nc3cc(F)ccc32)[nH]c2c1C(=O)CCC2 [DCB-70122, (Z)-6-fluoro-3-((3-(3-ethoxy-3-oxopropyl)-4-oxo-4,5,6,7-tetrahydro-1H-indol-2-yl)methylene)indolin-2-one] | 34.1% |  | 8.3% | 82.2% | 
3 | O=C(O)CCc1c(/C=C2\C(=O)Nc3cc(F)ccc32)[nH]c2c1C(=O)CCC2 [DCB-70123, (Z)-6-fluoro-3-((3-carboxyethyl-4-oxo-4,5,6,7-tetrahydro-1H-indol-2-yl)methylene)indolin-2-one] | 78.1% |  | 13.3% | 61.1% | 
4 | CCN(CC)C(=O)CCc1c(/C=C2\C(=O)Nc3ccc(F)cc32)[nH]c2c1C(=O)CCC2 [DCB-70124, (Z)-N,N-diethyl-3-(2-((5-fluoro-2-oxoindolin-3-ylidene)methyl)-4-oxo-4,5,6,7-tetrahydro-1H-indol-3-yl)propanamide] | 11.9% |  | 1.4% | 88.6% | 
5 | O=C1Nc2ccc(F)cc2/C1=C/c1[nH]c2c(c1CCC(=O)N1CCOCC1)C(=O)CCC2 [DCB-70125, (Z)-5-fluoro-3-((3-(3-morpholino-3-oxopropyl)-4-oxo-4,5,6,7-tetrahydro-1H-indol-2-yl)methylene)indolin-2-one] | 39.7% |  | -0.1% | 94.6% | 
6 | CCOC(=O)CCc1c(/C=C2\C(=O)Nc3cc(-c4ccc5c(c4)OCO5)ccc32)[nH]c2c1C(=O)CCC2 [DCB-70128, (Z)-ethyl 3-(2-((6-(benzo[d][1,3]dioxol-5-yl)-2-oxoindolin-3-ylidene)methyl)-4-oxo-4,5,6,7-tetrahydro-1H-indol-3-yl)propanoate] | 5.1% |  | 13.5% | 3.2% | 
7 | CCOC(=O)CCc1c(/C=C2\C(=O)Nc3ccc(NC(=O)Nc4cccc5ccccc45)cc32)[nH]c2c1C(=O)CCC2 [DCB-70129, (Z)-ethyl 3-(2-((5-(3-naphthalen-1-ylureido)-2-oxoindolin-3-ylidene)methyl)-4-oxo-4,5,6,7-tetrahydro-1H-indol-3-yl)propanoate] | 15.6% |  | 5.8% | 12.3% | 
8 | CCOC(=O)CCc1c(/C=C2\C(=O)Nc3cc(Br)ccc32)[nH]c2c1C(=O)CCC2 [DCB-70130, (Z)-ethyl 3-(2-((6-bromo-2-oxoindolin-3-ylidene)methyl)-4-oxo-4,5,6,7-tetrahydro-1H-indol-3-yl)propanoate] | 22.7% |  | 12.2% | 89.1% | 
9 | CCOC(=O)CCc1c(/C=C2\C(=O)Nc3ccc(NCc4ccccc4)cc32)[nH]c2c1C(=O)CCC2 [DCB-70131, (Z)-ethyl 3-(2-((5-(benzylamino)-2-oxoindolin-3-ylidene)methyl)-4-oxo-4,5,6,7-tetrahydro-1H-indol-3-yl)propanoate] | 70.7% |  | 44.5% | 85.1% | 
10 | O=C(O)CCc1c(/C=C2\C(=O)Nc3ccc(NCc4ccccc4)cc32)[nH]c2c1C(=O)CCC2 [DCB-70132, (Z)-3-(2-((5-(benzylamino)-2-oxoindolin-3-ylidene)methyl)-4-oxo-4,5,6,7-tetrahydro-1H-indol-3-yl)propanoic acid] | 33.4% |  | 26.9% | 3.7% | 
11 | O=C(O)CCc1c(/C=C2\C(=O)Nc3cc(Br)ccc32)[nH]c2c1C(=O)CCC2 [DCB-70133, (Z)-3-(2-((6-bromo-2-oxoindolin-3-ylidene)methyl)-4-oxo-4,5,6,7-tetrahydro-1H-indol-3-yl)propanoic acid] | 2.6% |  | 6% | 6.1% | 
12 | CCOC(=O)CCc1c(/C=C2\C(=O)Nc3ccc(NC(=O)Nc4ccccc4)cc32)[nH]c2c1C(=O)CCC2 [DCB-70134, (Z)-ethyl 3-(4-oxo-2-((2-oxo-5-(3-phenylureido)indolin-3-ylidene)methyl)-4,5,6,7-tetrahydro-1H-indol-3-yl)propanoate] | 16.4% |  | 5.7% | 40.9% | 
13 | CCOC(=O)CCc1c(/C=C2\C(=O)Nc3ccc(NC(=O)Nc4ccc(Br)cc4)cc32)[nH]c2c1C(=O)CCC2 [DCB-70135, (Z)-ethyl 3-(2-((5-(3-(4-bromophenyl)ureido)-2-oxoindolin-3-ylidene)methyl)-4-oxo-4,5,6,7-tetrahydro-1H-indol-3-yl)propanoate] | 7.4% |  | -6.6% | 20.3% | 
14 | CCOC(=O)CCc1c(/C=C2\C(=O)Nc3ccc(NC(=O)Nc4ccc(F)cc4)cc32)[nH]c2c1C(=O)CCC2 [DCB-70136, (Z)-ethyl 3-(2-((5-(3-(4-fluorophenyl)ureido)-2-oxoindolin-3-ylidene)methyl)-4-oxo-4,5,6,7-tetrahydro-1H-indol-3-yl)propanoate] | 26.4% |  | 0.1% | 39.3% | 
15 | CCOC(=O)CCc1c(/C=C2\C(=O)Nc3ccc(NC(=O)Nc4ccc(Cl)c(C(F)(F)F)c4)cc32)[nH]c2c1C(=O)CCC2 [DCB-70137, (Z)-ethyl 3-(2-((5-(3-(4-chloro-3-(trifluoromethyl)phenyl)ureido)-2-oxoindolin-3-ylidene)methyl)-4-oxo-4,5,6,7-tetrahydro-1H-indol-3-yl)propanoate] | 12.6% |  | -3.3% | 33.8% | 
16 | CCOC(=O)CCc1c(/C=C2\C(=O)Nc3ccc(NC(=O)c4ccc([N+](=O)[O-])cc4)cc32)[nH]c2c1C(=O)CCC2 [DCB-70140, (Z)-ethyl 3-(2-((5-(4-nitrobenzamido)-2-oxoindolin-3-ylidene)methyl)-4-oxo-4,5,6,7-tetrahydro-1H-indol-3-yl)propanoate] | 31.1% |  | 5.2% | 5.5% | 
17 | CCOC(=O)CCc1c(/C=C2\C(=O)Nc3ccc(NS(=O)(=O)c4ccc(F)cc4)cc32)[nH]c2c1C(=O)CCC2 [DCB-70144, (Z)-ethyl 3-(2-((5-(4-fluorophenylsulfonamido)-2-oxoindolin-3-ylidene)methyl)-4-oxo-4,5,6,7-tetrahydro-1H-indol-3-yl)propanoate] | 82% | 448 nM | 61.9% | 38.7% | 270 nM
18 | O=C(O)CCc1c(/C=C2\C(=O)Nc3ccc(NS(=O)(=O)c4ccc(F)cc4)cc32)[nH]c2c1C(=O)CCC2 [DCB-70145, (Z)-3-(2-((5-(4-fluorophenylsulfonamido)-2-oxoindolin-3-ylidene)methyl)-4-oxo-4,5,6,7-tetrahydro-1H-indol-3-yl)propanoic acid] | 90.3% | 449 nM | 75.2% | 24% | 45.7 nM
19 | CCOC(=O)CCc1c(/C=C2\C(=O)Nc3ccc(NS(=O)(=O)c4ccccc4)cc32)[nH]c2c1C(=O)CCCC2 [DCB-70146, (Z)-ethyl 3-(4-oxo-2-((2-oxo-5-(phenylsulfonamido)indolin-3-ylidene)methyl)-1,4,5,6,7,8-hexahydrocyclohepta[b]pyrrol-3-yl)propanoate] | 81.3% | 439 nM | 75.1% | 59.9% | 86.3 nM
20 | O=C(O)CCc1c(/C=C2\C(=O)Nc3ccc(NS(=O)(=O)c4ccccc4)cc32)[nH]c2c1C(=O)CCCC2 [DCB-70147, (Z)-3-(4-oxo-2-((2-oxo-5-(phenylsulfonamido)indolin-3-ylidene)methyl)-1,4,5,6,7,8-hexahydrocyclohepta[b]pyrrol-3-yl)propanoic acid] | 91.9% |  | 61.3% | 43.8% | 68.4 nM
